According to paper PMC6632015, “Niosomal Nanocarriers for Enhanced Skin Delivery of Quercetin with Functions of Anti-Tyrosinase and Antioxidant” (Molecules, 2019):
Converted amounts (≈) assume the structure as drawn. Blank lines part the entries; values can stand above or below the molecule they belong to.

Assays:
[1] = Ex vivo drug permeation through rat abdominal skin (transdermal diffusion device); format: in vitro ADME; conditions: 0.6% Tween80 receptor medium, up to 24 h
Experimental: Rats were sacrificed by cervical dislocation, hair on the abdomen was shaved, and then abdominal skin was separated and placed into physiological saline. Afterward, subcutaneous tissue (muscle, fat, and vascellum) was removed using surgical scissors and hemostatic forceps and then stored at 4 °C with physiological saline for further investigation. […] Then, 0.6% Tween80 solution was selected as the penetration release medium. Skin tissues were placed between the diffusion cell and receptor cell, and 0.4 mL of quercetin preparations (equivalent to 120 μg of quercetin) was applied on the skin. Penetration medium (0.5 mL) was withdrawn from the receptor cell at 1, 2, 4, 6, 8, 10, 12, and 24 h with the replacement of fresh penetration medium (0.5 mL). Penetration mediums withdrawn at different timepoints were diluted to 7 mL with methanol and determined by HPLC after centrifugation and filtration.

[2] = DPPH radical scavenging activity; conditions: DPPH 30 μg/mL, absorbance at 515 nm
Experimental: The antioxidant activity of flavonoids was measured by the bleaching rate of DPPH, reported by Blois. In its radical form, DPPH absorbs at the wavelength of 515 nm, but its absorption decreases upon reduction by an antioxidant or a radical compound. The DPPH radical scavenging activity of flavonoids was evaluated according to the method described by Rui Yang, with some modifications. Briefly, 5 mL of DPPH (30 μg/mL) was mixed with 0.1 mL of absolute ethyl alcohol and 0.1 mL of samples with different concentrations. Then, the absorbance of the mixtures was determined at 515 nm. The DPPH radical scavenging activity was calculated as follows: (2) DPPH radical scavenging activity = A0−Ai/A0×100% where A0 and Ai denote the absorbance at 515 nm of the control (DPPH mixed with absolute ethyl alcohol) and the test samples (DPPH mixed with flavonoids).

[3] = Solubility of quercetin in different release medium; format: physicochemical
Experimental: An aqueous solutions of 15 mL of Tween80 and SDS at different concentrations and excess quercetin were placed into each of the vials. Vials were shaken in a 32 °C water bath for 24 h. After 24 h, 5 mL suspension was centrifuged at 3000 rmp for 15 min and 0.2 mL of the supernatant was diluted to 2 mL and determined using HPLC.

[4] = target: tyrosinase; experiment: In vitro tyrosinase inhibition (dopachrome formation at 493 nm, L-tyrosine substrate); format: biochemical; conditions: for IC50 anti-tyrosinase activity: tyrosinase 120 unites/mL, phosphate buffer pH 6.8, 30 °C, L-tyrosine
Experimental: The tyrosinase inhibition assay was performed based on a previous study with slight modification. The activity of tyrosinase inhibition was determined using a spectrophotometer by monitoring dopachrome formation at 493 nm. […] After incubation at 30 °C for 10 min, 0.5 mL of L-tyrosine was added to the systems. The reaction systems were incubated at 30 °C for 20 min and absorbance was determined at 493 nm. […] The degree of inhibition of the sample was expressed as 50% inhibition concentration (IC50).
The inhibitory effects of the test samples were expressed as the percentage of tyrosinase inhibition as follows:(1) Tyrosinase inhibition=(A−B)−(C−D)/(A−B)×100% where A and B denote the absorbance at 493 nm of the mixture without the test sample (L-tyrosine mixed with the enzyme in the buffer; the control) and without the test sample or the enzyme (L-tyrosine in the buffer; the blank), respectively; C and D denote those with the test sample and enzyme (L-tyrosine mixed with the enzyme and test sample in the buffer; the reaction mixture) and without the enzyme (L-tyrosine mixed with the test sample in the buffer; the blank version of C).

[5] = Water solubility of quercetin and solubility in niosomes; format: physicochemical
Experimental: The water solubility of quercetin was measured with 15 mL of purified water, phosphate buffers with different pH values (pH 5.0, 6.0, 6.8, 7.4, 8.0), and excess quercetin, and placed into vials. The vials were shaken for 24 h in a 37 °C water bath and the supernatant was determined by HPLC after centrifugation.

Compound: O=c1c(O)c(-c2ccc(O)c(O)c2)oc2cc(O)cc(O)c12 [Quercetin]
quercetin in the penetration release medium (ex vivo penetration) [1]: could not be determined
EC50 DPPH radical scavenging activity [2]: 80.75 ± 0.26 µg/mL (≈ 267 µM)
Solubility in Tween80 Aqueous Solution ([3]; 0.1% Tween80, 32 °C, 24 h): 12.19 ± 1.05 µg/mL (≈ 40.3 µM)
solubility at 24 h ([3]; 0.2% SDS aqueous solution, 0.2% SDS, 32 °C, 24 h, read-out: Solubility in SDS Aqueous Solution): 4.58 ± 0.04 µg/mL (≈ 15.2 µM)
solubility at 24 h ([3]; 0.2% Tween80 aqueous solution, 32 °C, aqueous with cosolvent or surfactant or cyclodextrin, thermodynamic from solid, 0.2% Tween80, 32 °C, 24 h, read-out: Solubility in Tween80 Aqueous Solution): 24.7 ± 2.15 µg/mL (≈ 81.8 µM)
solubility at 24 h ([3]; 0.3% Tween80 aqueous solution, 0.3% Tween80, 32 °C, 24 h, read-out: Solubility in Tween80 Aqueous Solution): 31.4 ± 0.73 µg/mL (≈ 104 µM)
Solubility in SDS Aqueous Solution ([3]; 0.4% SDS, 32 °C, 24 h): 4.22 ± 0.43 µg/mL (≈ 14 µM)
solubility at 24 h ([3]; 0.4% Tween80 aqueous solution, 0.4% Tween80, 32 °C, 24 h, read-out: Solubility in Tween80 Aqueous Solution): 41.34 ± 0.19 µg/mL (≈ 137 µM)
solubility at 24 h ([3]; 0.6% SDS aqueous solution, 32 °C, aqueous with cosolvent or surfactant or cyclodextrin, thermodynamic from solid, 0.6% SDS, 32 °C, 24 h, read-out: Solubility in SDS Aqueous Solution): 6.48 ± 0.44 µg/mL (≈ 21.4 µM)
solubility at 24 h ([3]; 0.6% Tween80 aqueous solution, 0.6% Tween80, 32 °C, 24 h, read-out: Solubility in Tween80 Aqueous Solution): 56.4 ± 1.42 µg/mL (≈ 186 µM)
Solubility in pH-0.8%Tween80 Aqueous Solution ([3]; 0.8% Tween80, pH 5.0): 79.49 ± 0.41 μg/mL
solubility at 24 h ([3]; 0.8% Tween80 aqueous solution, 32 °C, aqueous with cosolvent or surfactant or cyclodextrin, thermodynamic from solid, 0.8% Tween80, 32 °C, 24 h, read-out: Solubility in Tween80 Aqueous Solution): 76.1 ± 3.11 µg/mL (≈ 252 µM)
solubility at 24 h ([3]; 0.8% Tween80 aqueous solution, 32 °C, pH 5, aqueous with cosolvent or surfactant or cyclodextrin, thermodynamic from solid, 0.8% Tween80, pH 5.0, read-out: Solubility in pH-0.8%Tween80 Aqueous Solution): 76.1 ± 3.11 µg/mL (≈ 252 µM)
solubility at 24 h ([3]; 0.8% Tween80 aqueous solution, 32 °C, pH 6.8, aqueous with cosolvent or surfactant or cyclodextrin, thermodynamic from solid, 0.8% Tween80, pH 6.8, read-out: Solubility in pH-0.8%Tween80 Aqueous Solution): 52.4 ± 0.71 µg/mL (≈ 173 µM)
solubility at 24 h ([3]; 0.8% Tween80 aqueous solution, pH 7.4, 0.8% Tween80, pH 7.4, read-out: Solubility in pH-0.8%Tween80 Aqueous Solution): 55 ± 6.6 µg/mL (≈ 182 µM)
IC50 anti-tyrosinase activity [4]: 1.59 ± 0.38 µg/mL (≈ 5.26 µM)
solubility in niosomes, fold higher than in water [5]: 1247 fold
solubility at 24 h ([5]; 37 °C, water, thermodynamic from solid): 0.21 ± 0.14 µg/mL (≈ 0.695 µM)
Solubility ([5]; medium: niosomes, from 300 μg/mL loaded and entrapment 87.3 ± 1.6%): 261.9 ± 4.8 µg/mL (≈ 867 µM)

Compound: O=c1c(O)c(-c2ccc(O)c(O)c2)oc2cc(O)ccc12 [Festin]
EC50 DPPH radical scavenging activity [2]: 83.19 ± 0.33 µg/mL (≈ 291 µM)
IC50 anti-tyrosinase activity [4]: 23.10 ± 0.32 µg/mL (≈ 80.7 µM)

Compound: Cc1cc(C(C)(C)C)c(O)c(C(C)(C)C)c1 [Butylated hydroxytoluene (BHT), Butylated hydroxytoluene, reference compound]
EC50 DPPH radical scavenging activity [2]: 358.15 ± 1.43 µg/mL (≈ 1630 µM)

Compound: O=C(O)[C@H]1O[C@@H](Oc2cc3oc(-c4ccc(O)cc4)cc(=O)c3c(O)c2O)[C@H](O)[C@@H](O)[C@@H]1O [Breviscapine]
EC50 DPPH radical scavenging activity [2]: 368.08 ± 1.04 µg/mL (≈ 796 µM)
anti-tyrosinase activity (in words) [4]: no promising anti-tyrosinase activity
IC50 anti-tyrosinase activity [4]: >1000 µg/mL

Compound: O=c1c(O)c(-c2ccc(O)cc2O)oc2cc(O)cc(O)c12 [Morin]
EC50 DPPH radical scavenging activity [2]: 123.06 ± 0.48 µg/mL (≈ 407 µM)
IC50 anti-tyrosinase activity [4]: 4.26 ± 0.47 µg/mL (≈ 14.1 µM)

Next, values leading:

EC50 DPPH radical scavenging activity [2]: 188.28 ± 0.68 µg/mL (≈ 308 µM)
anti-tyrosinase activity (in words) [4]: no promising anti-tyrosinase activity
IC50 anti-tyrosinase activity [4]: >1000 µg/mL
Compound: C[C@@H]1O[C@@H](OC[C@H]2O[C@@H](Oc3c(-c4ccc(O)c(O)c4)oc4cc(O)cc(O)c4c3=O)[C@H](O)[C@@H](O)[C@@H]2O)[C@H](O)[C@H](O)[C@H]1O [Rutin]

EC50 DPPH radical scavenging activity [2]: 118.63 ± 0.57 µg/mL (≈ 373 µM)
anti-tyrosinase activity (in words) [4]: no the anti-tyrosinase activity
Compound: O=c1c(O)c(-c2cc(O)c(O)c(O)c2)oc2cc(O)cc(O)c12 [Myricetin]
